Assays:
[1] = Human Metabolome Database; cited from earlier work
[2] = cited from earlier work
[3] = Plasma stability assay and LC-MS/MS; stability in solution; type: in vitro ADME; settings: compared with the other designed compounds
Description: Having described the compounds generally, including the preferred compound candidates for use in the treatment of PD, the method utilized to test and produce the compounds may now be described. […] The stability of these compounds is determined using a plasma stability assay and LC-MS/MS. The assays are utilized to assess each compound's activity and cellular permeability human dopaminergic neuronal precursor cell lines and Caco-2 cells. […] A in silico analysis may be used to predict bioavailability, BBB penetration, and PK/PD profiles in the peripheral and central nervous system.

N[C@@H](Cc1ccc(O)c(O)c1)C(=O)O [L-Dopa, L-3,4-dihydroxyphenylalanine]
lipophilicity, determined experimental value [1]: −2.39
bioavailability ([2]; after peripheral conversion and gut metabolism): 1%
fraction of oral dose that may reach the brain ([2]; certain formulations, at best): 5-10%

N[C@@H](Cc1ccc(OC(=O)CCCC[C@@H]2CCSS2)c(O)c1)C(=O)O [RG-1]
stability in aqueous solutions and plasma [3]: more stable

N[C@@H](Cc1ccc(OC(=O)CCCC[C@@H]2CCSS2)c(O)c1)B(O)O [RG-2]
stability in aqueous solutions and plasma [3]: more stable

C[Si](C)(C)CCc1ccc(C[C@@H](N)Cc2ccc(OC(=O)CCCC[C@@H]3CCSS3)c(O)c2)cc1 [RG-4]
stability in aqueous solutions and plasma [3]: more stable

From patent US20220213128A1 (RockGen Therapeutics LLC, priority 2021, published 2022)
